From ChEMBL document CHEMBL1125915, “Novel alkaloids from the tropical plant Ancistrocladus abbreviatus inhibit cell killing by HIV-1 and HIV-2” (J Med Chem, 1991) come the findings set out here.

The test system of assay [1] is CEM-SS. The assay can be described thus: Compound tested for inhibition of the cytopathic effects of HIV-1 upon CEM-SShuman lymphoblastoid target cells in vitro. It counts as functional, cell-based. Particulars: Homo sapiens. On the technique in general: Damage to the host cells serves as the signal in cytopathic effect assays.
The test system of assay [2] is CEM-SS. The assay can be described thus: Compound tested for cytotoxic effect on uninfected CEM-SS human lymphoblastoid target cell. It is filed as functional, cell-based.
For assay [3], the system named is CEM-SS. Nature of the assay: Compound tested for inhibition of P24 (P24 antigen) in HIV-infected CEM-SS cells; Inhibited. It counts as functional, cell-based. To be noted: Homo sapiens.
For assay [4], the system named is CEM-SS. The assay can be described thus: Compound tested for inhibition of syncytium-forming units (SFU) in HIV-infected CEM-SS cells; Inhibited. It counts as functional, cell-based. Particulars: Homo sapiens.
Assay [5] has as its target Human immunodeficiency virus type 1 reverse transcriptase (Human immunodeficiency virus 1) (UniProt Q72547). Nature of the assay: Compound tested for inhibition of RT (reverse transcriptase) in HIV-infected CEM-SS cells; Inhibited. It counts as cell-based.

`COc1cc(C)cc2c(-c3c(O)cc(O)c4c3C[C@H](C)N[C@H]4C)cc(-c3cc(-c4c(O)cc(O)c5c4C[C@H](C)N[C@H]5C)c4cc(C)cc(OC)c4c3O)c(O)c12` (stereo in doubt; 1) [listing 1 of 2 here]: a half-maximal effect with CEM-SS [1] (EC50) was put at 20 µM. In the assay on CEM-SS [2], this compound registered an IC50 of 200 µM.

Take `COc1cc(C)cc2c(-c3c(O)cc(O)c4c3C[C@H](C)N[C@H]4C)cc(-c3cc(-c4c(O)cc(O)c5c4C[C@H](C)N[C@H]5C)c4cc(C)cc(OC)c4c3O)c(O)c12` (stereo in doubt; 1) [listing 2 of 2 here]: the inhibition entry (with CEM-SS [3]; in the assay on CEM-SS [4]; in assay [5]) was “Inhibited” each time.

For `COc1cc(C)cc2c(-c3c(O)cc(O)c4c3C[C@H](C)N[C@H]4C)cc(-c3cc(-c4c(O)cc(O)c5c4C[C@H](C)N[C@H]5C)c4cc(C)cc(OC)c4c3O)c(O)c12` (stereo in doubt; 2), the inhibition entry (in the assay with CEM-SS [3]; in the assay on CEM-SS [4]; in assay [5]) was “Inhibited” in each case.

The term EC50 denotes the concentration needed to bring the measured effect to its halfway point. A higher EC50 goes with lower potency in that assay. For orientation: IC50 means the concentration needed to halve the response being measured.
